Results reported in patent US4429127A, “Quinoline carboxylic acid derivative” (Kyorin Pharmaceutical Co., Ltd., priority 1981, dated 1984).
Converted amounts (≈) assume the structure as drawn.

Experiments:
E. coli ML4707 = experiment: MIC against the infecting strain (Table 2); type: cell-based; conditions: Escherichia coli; E. coli ML4707; read-out: MIC
Protocol: (§1) The minimum inhibitory concentration (MIC) of the compound (I) was determined by an agar dilution technique (the standard method of Japan Society of Chemotherapy) against standard strains of gram-positive and gram-negative bacteria.

[1] = tested on: Staphylococcus aureus Smith; experiment: MIC against the infecting strain (Table 2); type: cell-based; conditions: Staphylococcus aureus Smith; read-out: MIC
Protocol: as §1

[2] = Tissue levels after a single oral administration in mice (microbiological assay); type: in vivo; conditions: mouse; for concentration at 0.5 h / concentration at 1 h / concentration at 2 h / concentration at 4 h / concentration at 6 h: 50 mg/kg oral
Protocol: (§2) Tissue levels of the compound (I) after a single oral administration of 50 mg/kg in mice and rats
(§3) Tissue levels of the compound (I) were determined by micro-biological assay which employed the thin layer cup method with Bacillus subtilis ATCC6633 as the test organism. Serum and tissue levels of the compound (I) were calculated with the standard curve prepared in normal serum of the test animal species and M/15 phosphate buffer (pH 7.5), respectively.

[3] = Tissue levels after a single oral administration in rats (microbiological assay); type: in vivo; conditions: rat; for concentration at 0.5 h / concentration at 1 h / concentration at 2 h / concentration at 4 h / concentration at 6 h: 50 mg/kg oral
Protocol: as §2, §3

[4] = Tissue levels after a single oral administration, mice and rats together; type: in vivo; conditions: single oral 50 mg/kg
Protocol: as §2, §3

[5] = Metabolism when administered to animals; type: in vivo
[6] = kidney, read-out: Kidney concentration
[7] = liver, read-out: Liver concentration
[8] = lung, read-out: Lung concentration
[9] = serum, read-out: Serum concentration

SMILES: CCn1cc(C(=O)O)c(=O)c2cc(F)c(N3CCN(Cc4ccc(N)cc4)CC3)c(F)c21 [compound (I), 7-[4-(p-aminobenzyl)-1-piperazinyl]-1-ethyl-6,8-difluoro-1,4-dihydro-4-oxoquinoline-3-carboxylic acid]
- MIC (E. coli ML4707): 0.39 µg/mL (≈ 0.881 µM)
- MIC [1]: 0.05 µg/mL (≈ 0.113 µM)
- concentration at 0.5 h [2, 6]: 13000 ng/mL
- concentration at 1 h [2, 6]: 13000 ng/mL
- concentration at 2 h [2, 6]: 7800 ng/mL
- concentration at 4 h [2, 6]: 4600 ng/mL
- concentration at 6 h [2, 6]: 4600 ng/mL
- concentration at 0.5 h [2, 7]: 22500 ng/mL
- concentration at 1 h [2, 7]: 17500 ng/mL
- concentration at 2 h [2, 7]: 12000 ng/mL
- concentration at 4 h [2, 7]: 9000 ng/mL
- concentration at 6 h [2, 7]: 5800 ng/mL
- concentration at 0.5 h [2, 8]: 12800 ng/mL
- concentration at 1 h [2, 8]: 9500 ng/mL
- concentration at 2 h [2, 8]: 5500 ng/mL
- concentration at 4 h [2, 8]: 4300 ng/mL
- concentration at 6 h [2, 8]: 2800 ng/mL
- concentration at 0.5 h [2, 9]: 8600 ng/mL
- concentration at 1 h [2, 9]: 6500 ng/mL
- concentration at 2 h [2, 9]: 5000 ng/mL
- concentration at 4 h [2, 9]: 2700 ng/mL
- concentration at 6 h [2, 9]: 1800 ng/mL
- Cmax ([2]; serum, mice, single oral 50 mg/kg, read-out: Peak serum level): 8600 ng/mL
- concentration at 0.5 h [3, 6]: 6600 ng/mL
- concentration at 1 h [3, 6]: 6800 ng/mL
- concentration at 2 h [3, 6]: 2700 ng/mL
- concentration at 4 h [3, 6]: 1000 ng/mL
- concentration at 6 h [3, 6]: 300 ng/mL
- concentration at 0.5 h [3, 7]: 14000 ng/mL
- concentration at 1 h [3, 7]: 15400 ng/mL
- concentration at 2 h [3, 7]: 6200 ng/mL
- concentration at 4 h [3, 7]: 2200 ng/mL
- concentration at 6 h [3, 7]: 800 ng/mL
- concentration at 0.5 h [3, 8]: 6000 ng/mL
- concentration at 1 h [3, 8]: 8600 ng/mL
- concentration at 2 h [3, 8]: 2100 ng/mL
- concentration at 4 h [3, 8]: 600 ng/mL
- concentration at 0.5 h [3, 9]: 4800 ng/mL
- concentration at 1 h [3, 9]: 5300 ng/mL
- concentration at 2 h [3, 9]: 1200 ng/mL
- concentration at 4 h [3, 9]: 200 ng/mL
- concentration at 6 h [3, 9]: 200 ng/mL
- Cmax ([3]; serum, rats, single oral 50 mg/kg, read-out: Peak serum level): 5300 ng/mL
- Level in lung, liver and kidney relative to serum, in words ([4]; both species): higher than those in serum
- Transferability in tissues, in words ([4]; mice and rats): very excellent
- Tmax ([4]; serum, mice and rats, read-out: Time to peak serum level): 30 to 60 min
- Metabolism, in words [5]: metabolized in part to 1-ethyl-6,8-difluoro-1,4-dihydro-4-oxo-7-(1-piperazinyl)quinoline-3-carboxylic acid
